Reference: patent US9751882B2, “Diaryl[A, G]quinolizidine compound, preparation method therefor, pharmaceutical composition, and uses thereof” (SHANGHAI INSTITUTE OF MATERIA MEDICA, CHINESE ACADEMY OF …, priority 2012, dated 2017)

Tests used:
5-HT1A receptor = target: T1, 5-HT1A receptor (Homo sapiens, UniProt P08908); experiment: Radioligand binding affinity on 5-HT1A receptor ([3H]8-OH-DPAT); conditions: 5-HT1A receptor protein expressed in HEK-293 cells
T1 sequence (P08908 1-422): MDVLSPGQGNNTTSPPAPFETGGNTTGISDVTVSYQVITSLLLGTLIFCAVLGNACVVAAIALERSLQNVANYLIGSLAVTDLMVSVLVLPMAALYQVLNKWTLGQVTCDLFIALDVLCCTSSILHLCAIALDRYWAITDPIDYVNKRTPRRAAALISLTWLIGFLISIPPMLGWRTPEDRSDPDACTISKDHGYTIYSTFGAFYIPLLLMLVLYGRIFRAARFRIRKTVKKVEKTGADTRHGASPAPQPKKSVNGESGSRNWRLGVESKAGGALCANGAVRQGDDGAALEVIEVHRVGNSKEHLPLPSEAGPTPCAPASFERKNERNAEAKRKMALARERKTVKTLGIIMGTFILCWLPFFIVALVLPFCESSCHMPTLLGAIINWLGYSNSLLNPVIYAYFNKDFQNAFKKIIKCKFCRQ
Description: (§1) (1) Determination of the affinity of the diarylo[a,g]quinolizines of formula (I) and derivatives thereof on dopamine D1, dopamine D2, 5-HT1A and 5-HT2A receptors.
(§2) The compound of the invention at different concentrations (10^−5 M-10^−11 M), an isotope receptor ligand and a receptor protein were loaded into a reaction tube, incubated at 30° C. in a water bath for 60 min, and then terminated in a refrigerator. The mixture was filtered through suction filtration using GF/C glass fiber paper on a Millipore filter (millipore) cell sample collector, and dried. The resulting sample was placed into a 0.5 mL tube, added with 500 μL of liquid scintillation fluid, and counted for measuring the intensity of radioativity.
For 5-HT1A receptor: isotope receptor ligand [3H]8-OH-DPAT; 5-HT1A receptor protein expressed in HEK-293 cells;
(§3) Firstly, the above […] were dissolved in DMSO and then diluted with double distilled water to the appropriate concentration (10^−5 M-10^−11 M).
(§4) (+) Butaclamo was purchased from RBI Company, GF/C glass fiber filter paper was purchased from Whatman Co., liquid scintillation fluid (dopamine D1, D2 receptors)/liposoluble scintillation fluid (5-HT1A. 5-HT2A receptor), Beckman LS-6500 multi-function liquid scintillation counter.

5-HT2A receptor = target: T2, 5-HT2A receptor (Homo sapiens, UniProt P28223); experiment: Radioligand binding affinity on 5-HT2A receptor ([3H]-Ketanserin); conditions: 5-HT2A receptor protein expressed in HEK-293 cells
T2 construct: expressed in transfected cells; host or cells: HEK-293
Description: as §1, §2
For 5-HT2A receptor: isotope receptor ligand [3H]-Ketanserin; 5-HT2A receptor protein expressed in HEK-293 cells;
as §3, §4

dopamine D1 receptor = dopamine D1 receptor (Macaca mulatta, UniProt O77680); experiment: Radioligand binding affinity on dopamine D1 receptor ([3H]-SCH23390); conditions: D1 receptor protein expressed in HEK-293 cells
Description: as §2, §3, §4

dopamine D2 receptor = dopamine D2 receptor (Rattus norvegicus, UniProt P61169); experiment: Radioligand binding affinity on dopamine D2 receptor ([3H]Spiperone); conditions: D2 receptor protein expressed in HEK-293 cells
Description: as §2, §3, §4

T2 sequence (P28223 whole entry): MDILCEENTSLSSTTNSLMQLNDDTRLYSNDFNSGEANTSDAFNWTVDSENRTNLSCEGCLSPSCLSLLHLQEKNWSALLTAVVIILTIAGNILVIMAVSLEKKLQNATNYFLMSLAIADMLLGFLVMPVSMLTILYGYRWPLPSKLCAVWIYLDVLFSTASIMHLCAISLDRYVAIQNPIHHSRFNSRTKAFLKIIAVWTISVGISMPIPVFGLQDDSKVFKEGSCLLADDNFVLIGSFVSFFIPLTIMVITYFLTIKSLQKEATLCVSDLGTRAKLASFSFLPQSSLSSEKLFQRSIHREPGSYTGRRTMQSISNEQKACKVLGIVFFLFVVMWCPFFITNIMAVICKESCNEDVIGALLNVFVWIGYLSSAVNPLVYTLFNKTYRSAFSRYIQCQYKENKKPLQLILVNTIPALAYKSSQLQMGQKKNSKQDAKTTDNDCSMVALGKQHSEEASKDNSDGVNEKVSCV
Sequence of dopamine D2 receptor (P61169 whole entry): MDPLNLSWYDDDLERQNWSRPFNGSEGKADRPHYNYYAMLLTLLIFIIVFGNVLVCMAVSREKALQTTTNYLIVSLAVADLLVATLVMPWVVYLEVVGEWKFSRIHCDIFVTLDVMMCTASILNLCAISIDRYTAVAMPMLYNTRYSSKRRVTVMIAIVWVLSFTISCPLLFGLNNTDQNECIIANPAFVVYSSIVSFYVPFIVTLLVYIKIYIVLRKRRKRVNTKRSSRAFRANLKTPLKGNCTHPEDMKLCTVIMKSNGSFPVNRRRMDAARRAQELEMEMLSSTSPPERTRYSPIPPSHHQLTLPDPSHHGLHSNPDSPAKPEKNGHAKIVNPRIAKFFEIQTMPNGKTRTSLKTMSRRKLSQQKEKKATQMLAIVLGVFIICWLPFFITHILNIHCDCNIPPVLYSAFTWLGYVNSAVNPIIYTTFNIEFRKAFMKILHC
Sequence of dopamine D1 receptor (O77680 whole entry): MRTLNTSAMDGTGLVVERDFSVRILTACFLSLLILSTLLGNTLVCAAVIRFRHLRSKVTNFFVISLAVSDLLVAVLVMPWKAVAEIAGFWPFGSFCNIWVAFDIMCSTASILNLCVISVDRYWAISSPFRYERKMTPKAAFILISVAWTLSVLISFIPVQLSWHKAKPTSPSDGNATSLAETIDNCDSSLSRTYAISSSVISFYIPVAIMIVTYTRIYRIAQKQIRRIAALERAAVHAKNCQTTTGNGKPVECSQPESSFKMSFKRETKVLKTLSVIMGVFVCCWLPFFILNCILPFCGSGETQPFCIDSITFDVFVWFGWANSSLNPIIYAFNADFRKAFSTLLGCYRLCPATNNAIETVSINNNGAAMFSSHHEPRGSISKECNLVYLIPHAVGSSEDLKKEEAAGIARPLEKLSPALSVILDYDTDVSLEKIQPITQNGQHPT

Structure (SMILES)	5-HT1A receptor inhibition % (5-HT1A receptor) [%]	IC50 (5-HT1A receptor) [nM]	Ki (5-HT1A receptor) [nM]	5-HT2A receptor inhibition % (5-HT2A receptor) [%]	D1 receptor inhibition % (dopamine D1 receptor) [%]	IC50 (dopamine D1 receptor) [nM]	Ki (dopamine D1 receptor) [nM]	D2 receptor inhibition % (dopamine D2 receptor) [%]	IC50 (5-HT2A receptor) [nM]	Ki (5-HT2A receptor) [nM]	IC50 (dopamine D2 receptor) [nM]	Ki (dopamine D2 receptor) [nM]
COc1cc2c(cc1OC)CN1CCc3c([nH]c4ccccc34)[C@@H]1C2 [AI001, (S)-2,3-dimethoxy-5,7,8,13,13b,14-hexahydroindolo [2′,3′:3,4]pyrido[1,2-b]isoquinoline]	88.22	911 ± 130	728 ± 104	50.46								
COc1c(O)ccc2c1CN1CCc3sc(C)cc3[C@@H]1C2 [AS003, (S)-2-methyl-8-methoxy-9-hydroxy-4,7,12,12a-tetrahydro-5H-benzo[g]thieno[3,2-a]quinolizine]	91.91	514 ± 111	405 ± 87.1	90.43	99.80	74 ± 4.3	37.9 ± 2.21	40.31	2230 ± 46.5	1070 ± 22.4		
COc1c(O)ccc2c1CN1CCc3sc(C)cc3[C@H]1C2 [AS004, (R)-2-methyl-8-methoxy-9-hydroxy-4,7,12,12a-tetrahydro-5H-benzo[g]thieno[3,2-a]quinolizine]	51.69			44.24	86.32	230 ± 44.8	115 ± 22.4	6.97				
CCc1cc2c(s1)CCN1Cc3c(ccc(O)c3OC)C[C@@H]21 [AS005, (S)-2-ethyl-8-methoxy-9-hydroxy-4,7,12,12a-tetrahydro-5H-benzo[g]thieno[3,2-a]quinolizine]	98.58	162 ± 3.8	130 ± 3.03	76.11	98.23	86.8 ± 11.3	47.6 ± 6.18	62.98				
COc1ccc2c(c1OC)CN1CCc3sccc3[C@@H]1C2 [AS022, (S)-8,9-dimethoxy-4,7,12,12a-tetrahydro-5H-benzo [g]thieno[3,2-a]quinolizine]	6.60			32.31	69.25			5.21				
COc1ccc2c(c1OC)CN1CCc3sc(C)cc3[C@@H]1C2 [AS023, (S)-2-methyl-8,9-dimethoxy-4,7,12,12a-tetrahydro-5H-benzo[g]thieno[3,2-a]quinolizine]	76.45			60.08	89.62	714 ± 15.7	357 ± 7.83	22.17				
COc1ccc(OC)c2c1C[C@H]1c3cc(C)sc3CCN1C2 [AS032, (S)-2-methyl-8,11-dimethoxy-4,7,12,12a-tetrahydro-5H-benzo[g]thieno[3,2-a]quinolizine]	74.09			30.01	96.00	416 ± 26.9	159 ± 28.9	13.75				
COc1c(N)ccc2c1CN1CCc3sccc3[C@@H]1C2 [AS050, (S)-8-methoxy-9-amino-4,7,12,12a-tetrahydro-5H-benzo[g]thieno[3,2-a]quinolizine]	49.26			74.25	99.02	1520 ± 357	685 ± 72.2	22.63				
COc1c(NC(C)=O)ccc2c1CN1CCc3sccc3[C@@H]1C2 [AS051, (S)-8-methoxy-9-acetylamino-4,7,12,12a-tetrahydro-5H-benzo[g]thieno[3,2-a]quinolizine]	33.90			46.59	76.38			1.29				
COc1cc2c(cc1O)[C@@H]1Cc3sccc3CN1CC2 [DS001, (S)-2-hydroxy-3-methoxy-5,8,12,12a-tetrahydro-6H-benzo[a]thieno[3,2-g]quinolizine]						172 ± 8.49	87 ± 4.3				396 ± 68.2	88 ± 15.2
CCc1cc2c(s1)C[C@H]1c3cc(O)c(OC)cc3CCN1C2 [DS003, (S)-2-hydroxy-3-methoxy-10-ethyl-5,8,12,12a-tetrahydro-6H-benzo[a]thieno[3,2-g]quinolizine]	92.10	1250 ± 237	998 ± 190	45.15	98.16	48.1 ± 0.68	26.3 ± 0.37	98.50			180 ± 16.8	40.8 ± 3.8
CCCc1cc2c(s1)C[C@H]1c3cc(O)c(OC)cc3CCN1C2 [DS005, (S)-2-hydroxy-3-methoxy-10-n-propyl-5,8,12,12a-tetrahydro-6H-benzo[a]thieno[3,2-g]quinolizine]	85.33	2460 ± 286	1970 ± 229	29.55	96.74	113 ± 12.6	61.7 ± 6.88	96.31			171 ± 9.5	38.6 ± 2.15
COc1cc2c(cc1O)[C@@H]1Cc3sc(CC(C)C)cc3CN1CC2 [DS006, (S)-2-hydroxy-3-methoxy-10-(2-methylpropyl)-5,8, 12,12a-tetrahydro-6H-benzo[a]thieno[3,2-g]quinolizine]	83.71			50.31								
CCCCc1cc2c(s1)C[C@H]1c3cc(O)c(OC)cc3CCN1C2 [DS007, (S)-2-hydroxy-3-methoxy-10-n-butyl-5,8,12,12a-tetrahydro-6H-benzo[a]thieno[3,2-g]quinolizine]	87.03	1080 ± 96.7	864 ± 77.3	53.34	97.62	113 ± 13	62.2 ± 7.13	99.53			76.3 ± 8.46	17.6 ± 1.95
COc1cc2c(cc1O)[C@@H]1Cc3sc(CCC(C)C)cc3CN1CC2 [DS008, (S)-2-hydroxy-3-methoxy-10-(3-methylbutyl)-5,8,12, 12a-tetrahydro-6H-benzo[a]thieno[3,2-g]quinolizine]					88.78			90.45			239 ± 14.7	79.5 ± 4.83
COc1cc2c(cc1O)[C@@H]1Cc3sc(CCCl)cc3CN1CC2 [DS013, (S)-2-hydroxy-3-methoxy-10-(2-chloroethyl)-5,8,12, 12a-tetrahydro-6H-benzo[a]thieno[3,2-g]quinolizine]	89.84	692 ± 102	553 ± 81.6	34.81	98.64		16.4 ± 2.81	98.37			146 ± 7.19	34.4 ± 2.72
COc1cc2c(cc1O)[C@@H]1Cc3sc(CCCCl)cc3CN1CC2 [DS015, (S)-2-hydroxy-3-methoxy-10-(3-chloropropyl)-5,8, 12,12a-tetrahydro-6H-benzo[a]thieno[3,2-g]quinolizine]	92.24	148 ± 28.6	119 ± 23		96.10	144 ± 5.35	77 ± 2.85	97.19			55.1 ± 6.89	18.4 ± 2.3
COc1cc2c(cc1O)[C@@H]1Cc3sc(CCCCCl)cc3CN1CC2 [DS016, (S)-2-hydroxy-3-methoxy-10-(4-chlorobutyl)-5,8,12, 12a-tetrahydro-6H-benzo[a]thieno[3,2-g]quinolizine]					95.84	297 ± 20.1	158 ± 10.7	93.54			150 ± 23.4	49.9 ± 7.8
